Experimental findings from US12540131B2 (Merck Sharp & Dohme LLC, priority 2019, dated 2026) are described below.

For one test, the target named is GST tagged truncated human mutant G2019S LRRK2 (Homo sapiens (Human), UniProt Q5S007, G2019S). The test can be described thus: LRRK2 Km ATP LanthaScreen Assay. The test is classed as biochemical. As to conditions: G2019S LRRK2, 134 μM ATP (Km ATP), mean values. The procedure, abridged: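 Enzyme (GST-tagged, truncated) was preincubated with compound for 15 min at RT in 50 mM Tris pH 8.5, 10 mM MgCl2, 0.01% Brij-35, 1 mM EGTA, 2 mM DTT and 0.05 mM orthovanadate. Fluorescein-LRRKtide and 134 μM ATP (Km) were then added for 90 min. EDTA and Tb-anti-pERM antibody stopped the reaction; the TR-FRET 520/495 ratio gave 4-parameter IC50s, reported as mean pIC50.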
GST tagged truncated human mutant G2019S LRRK2, sequence (Q5S007 970-2527 G2019S): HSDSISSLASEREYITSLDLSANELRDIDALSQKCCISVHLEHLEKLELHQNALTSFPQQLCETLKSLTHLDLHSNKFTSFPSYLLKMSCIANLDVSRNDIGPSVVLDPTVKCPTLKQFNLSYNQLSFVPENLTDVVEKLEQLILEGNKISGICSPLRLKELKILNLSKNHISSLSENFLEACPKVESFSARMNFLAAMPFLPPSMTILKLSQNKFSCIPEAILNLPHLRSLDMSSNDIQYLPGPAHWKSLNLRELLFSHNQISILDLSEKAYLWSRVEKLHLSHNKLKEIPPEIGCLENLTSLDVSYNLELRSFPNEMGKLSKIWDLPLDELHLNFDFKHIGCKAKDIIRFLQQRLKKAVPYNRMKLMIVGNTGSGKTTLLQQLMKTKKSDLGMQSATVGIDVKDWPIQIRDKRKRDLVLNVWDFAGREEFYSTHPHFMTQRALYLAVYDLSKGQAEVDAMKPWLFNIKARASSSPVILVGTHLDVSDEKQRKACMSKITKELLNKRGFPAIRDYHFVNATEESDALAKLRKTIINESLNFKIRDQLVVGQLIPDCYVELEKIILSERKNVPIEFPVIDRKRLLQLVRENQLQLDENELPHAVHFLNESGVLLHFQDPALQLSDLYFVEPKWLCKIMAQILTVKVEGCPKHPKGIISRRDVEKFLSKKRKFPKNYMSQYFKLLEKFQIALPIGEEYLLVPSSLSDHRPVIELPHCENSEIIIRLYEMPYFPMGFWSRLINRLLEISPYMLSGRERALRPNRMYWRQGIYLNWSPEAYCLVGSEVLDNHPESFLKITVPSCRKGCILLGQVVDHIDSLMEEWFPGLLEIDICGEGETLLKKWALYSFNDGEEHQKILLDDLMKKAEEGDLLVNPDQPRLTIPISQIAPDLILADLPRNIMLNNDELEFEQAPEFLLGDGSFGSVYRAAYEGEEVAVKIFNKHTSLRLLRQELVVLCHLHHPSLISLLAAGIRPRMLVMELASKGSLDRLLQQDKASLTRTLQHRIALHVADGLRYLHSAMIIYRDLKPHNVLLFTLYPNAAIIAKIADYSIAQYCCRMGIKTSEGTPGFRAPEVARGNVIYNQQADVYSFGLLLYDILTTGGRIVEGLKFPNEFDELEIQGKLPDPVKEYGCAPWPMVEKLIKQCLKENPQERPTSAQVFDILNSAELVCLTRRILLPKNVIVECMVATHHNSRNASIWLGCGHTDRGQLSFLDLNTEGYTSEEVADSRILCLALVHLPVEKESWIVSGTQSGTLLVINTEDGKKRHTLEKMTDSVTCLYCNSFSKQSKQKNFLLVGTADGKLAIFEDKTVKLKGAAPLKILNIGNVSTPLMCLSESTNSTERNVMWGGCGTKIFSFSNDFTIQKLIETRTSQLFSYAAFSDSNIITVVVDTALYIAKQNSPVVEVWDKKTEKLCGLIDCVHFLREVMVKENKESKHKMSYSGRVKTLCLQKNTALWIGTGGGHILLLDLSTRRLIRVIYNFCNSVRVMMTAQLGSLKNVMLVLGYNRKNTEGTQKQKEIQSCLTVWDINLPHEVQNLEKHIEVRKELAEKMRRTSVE
Background: TR-FRET usually uses a lanthanide donor and a delayed reading to cut background.
For the compound `CC1(n2ncc(Nc3ncc4cc(Cl)c([C@@H]5CCNC[C@H]5F)cc4n3)c2Cl)CC1` (single isomer, unassigned) [Ex-4.91, (3S,4S) or (3R,4R) 6-chloro-N-[5-chloro-1-(1-methylcyclopropyl)-1H-pyrazol-4-yl]-7-(3-fluoropiperidin-4-yl)quinazolin-2-amine], the “LRRK2 pIC50” value is on record as above 9.20. `CC1(n2ncc(Nc3ncc4cc(Cl)c([C@H]5CCNC[C@@H]5F)cc4n3)c2Cl)CC1` (single isomer, unassigned) [Ex-4.92, (3S,4S) or (3R,4R) 6-chloro-N-[5-chloro-1-(1-methylcyclopropyl)-1H-pyrazol-4-yl]-7-(3-fluoropiperidin-4-yl)quinazolin-2-amine]: the “LRRK2 pIC50” value is on record as above 9.20.

As to `CC1(N2CC[C@@H](c3cc4nc(Nc5cnn(C6CC6)c5Cl)ncc4cc3Cl)[C@H](F)C2)COC1` (single isomer, unassigned) [Ex-4.99, (3S,4S) or (3R,4R) 6-chloro-N-(5-chloro-1-cyclopropyl-1H-pyrazol-4-yl)-7-[3-fluoro-1-(3-methyloxetan-3-yl)piperidin-4-yl]quinazolin-2-amine], the “LRRK2 pIC50” value came out at 8.01. In the case of `N#CC1COCC1N1CCC(c2cc3nc(Nc4cnn(C5CC5)c4Cl)ncc3cc2Cl)CC1` (single isomer, unassigned) [Ex-4.102, (3S,4S) or (3R,4R) or (3S,4R) or (3R,4S) 4-(4-(6-chloro-2-((5-chloro-1-cyclopropyl-1H-pyrazol-4-yl)amino)quinazolin-7-yl)piperidin-1-yl)tetrahydrofuran-3-carbonitrile], the “LRRK2 pIC50” value is reported as above 9.20. As for `N#CC1COCC1N1CCC(c2cc3nc(Nc4cnn(C5CC5)c4Cl)ncc3cc2Cl)CC1` (single isomer, unassigned) [Ex-4.103, (3S,4S) or (3R,4R) or (3S,4R) or (3R,4S) 4-(4-(6-chloro-2-((5-chloro-1-cyclopropyl-1H-pyrazol-4-yl)amino)quinazolin-7-yl)piperidin-1-yl)tetrahydrofuran-3-carbonitrile], the “LRRK2 pIC50” value stood at 8.49.

Turning to `O[C@H]1COC[C@H]1N1CCC(c2cc3nc(Nc4cnn(C5CC5)c4Cl)ncc3cc2Cl)CC1` (single isomer, unassigned) [Ex-4.104, (3S,4S) or (3R,4R) 4-(4-(6-chloro-2-((5-chloro-1-cyclopropyl-1H-pyrazol-4-yl)amino)quinazolin-7-yl)piperidin-1-yl)tetrahydrofuran-3-ol], the “LRRK2 pIC50” value is above 9.20. For `O[C@@H]1COC[C@@H]1N1CCC(c2cc3nc(Nc4cnn(C5CC5)c4Cl)ncc3cc2Cl)CC1` (single isomer, unassigned) [Ex-4.105, (3S,4S) or (3R,4R) 4-(4-(6-chloro-2-((5-chloro-1-cyclopropyl-1H-pyrazol-4-yl)amino)quinazolin-7-yl)piperidin-1-yl)tetrahydrofuran-3-ol], the “LRRK2 pIC50” value came to 8.51.

Consider `CC1CC(c2cc3nc(Nc4cnn(C5CC5)c4Cl)ncc3cc2Cl)CCN1C1COC1` (single isomer, unassigned) [Ex-4.106, (2S,4S) or (2R,4R) or (2S,4R) or (2R,4S) 6-chloro-N-(5-chloro-1-cyclopropyl-1H-pyrazol-4-yl)-7-(2-methyl-1-(oxetan-3-yl)piperidin-4-yl)quinazolin-2-amine], for which the “LRRK2 pIC50” value is listed as above 9.20.

Consider `CC1CC(c2cc3nc(Nc4cnn(C5CC5)c4Cl)ncc3cc2Cl)CCN1C1COC1` (single isomer, unassigned) [Ex-4.107, (2S,4S) or (2R,4R) or (2S,4R) or (2R,4S) 6-chloro-N-(5-chloro-1-cyclopropyl-1H-pyrazol-4-yl)-7-(2-methyl-1-(oxetan-3-yl)piperidin-4-yl)quinazolin-2-amine], for which the “LRRK2 pIC50” value came out at 8.52.

The same test, now with this note: G2019S LRRK2, 134 μM ATP (Km ATP), mean values; read-out: LRRK2 pIC50 (converted).
Consider `Cc1nsc(Nc2ncc3cc(Cl)c([C@@H]4CCN(C5COC5)C[C@H]4F)cc3n2)c1Cl` (single isomer, unassigned) [Ex-4.88, (3S,4S) or (3R,4R) 6-chloro-N-(4-chloro-3-methyl-1,2-thiazol-5-yl)-7-[3-fluoro-1-(oxetan-3-yl)piperidin-4-yl]quinazolin-2-amine], for which the IC50 is 3.8 nM.
